Experimental data reported in patent publication EP1724268A1, “COMPOUND HAVING TGF-BETA INHIBITORY ACTIVITY AND PHARMACEUTICAL COMPOSITION CONTAINING SAME” (KIRIN BEER KABUSHIKI KAISHA, priority 2004, dated 2005).
Where two headings read alike, the source gives them in different places.

Tested on: TGFβ signal
Assay: TGFβ signal inhibitory activity, (SBE)4-Luc reporter in A549 cells (Test Examples 1A and 1B)
Format: cell-based, human
Conditions: for inhibition at 3 µM / inhibition at 10 µM: Homo sapiens
Procedure: Test Example 1A: TGFβ signal inhibitory activity (in vitro test) The compounds according to the present invention was evaluated for TGFβ signal inhibitory activity according to the method described in J. Boil .Chem., 273, 21145-21152 (1998). Specifically, a plasmid having four tandem binding sequences of Smad3, a TGF-beta signal transducer, to the upstream of a luciferases gene were used as a reporter plasmid ((SBE)4-Luc) to detect TGF-beta signal, This reporter gene was introduced into human pulmonary carcinoma epithelial cells (A549) (available from ATCC) to establish a stable cell line. A test compound and TGFβ-1 (2 ng/ ml) were added to the cells, and the mixture was cultured for 4 hr. In this case, the compounds according to the present invention synthesized in the Examples were used as the test compound. After the culture, the luciferase activity of the cells were measured by chemiluminescence (Steady Glo (trademark) luciferase assay system, available from Promega). Likewise, the luciferase activity was measured as a control against the culture of cells with the addition of TGFβ only and the culture of cells without the addition of both TGFβ and the test compound.
The TGFβ inhibition (%) was calculated by the following equation, based on the measurement results. TGFβ inhibition(%) = (A-B)/(A-C) × 100 [formula] wherein • A: luciferase activity with the addition of TGFβ1 and without the addition of test compound (relative luciferase unit), • B: luciferase activity with the addition of both TGFβ1 and test compound (relative luciferase unit), and • C: luciferase activity without the addition of both TGFβ1 and test compound (relative luciferase unit).
The test was carried out for each of test compound at the concentrations of 3 µM and 10 µM. For certain test compounds, the test was further carried out for test compound at the concentration of 1 µM.
For the compounds of Reference Examples, the TGFβ signal inhibitory activity was evaluated in the same manner as in Test Example 1A.

[1] = A549, test compound 3 µM, Reference Examples, Table 1B, read-out: TGFβ inhibition rate, %
[2] = A549, test compound 10 µM, Reference Examples, Table 1B, read-out: TGFβ inhibition rate, %
[3] = A549, test compound 3 µM, TGFβ-1 2 ng/ml, 4 hr, Table 1A, read-out: TGFβ inhibition rate, %
[4] = A549, test compound 10 µM, TGFβ-1 2 ng/ml, 4 hr, Table 1A, read-out: TGFβ inhibition rate, %
[5] = A549, 3 µM, compounds of Reference Examples (Test Example 1B), read-out: TGFβ inhibition rate, %
[6] = A549, 10 µM, compounds of Reference Examples (Test Example 1B), read-out: TGFβ inhibition rate, %

Work on `COc1cc2c(Oc3ccc(C)cc3C(=O)c3ccccc3)ccnc2cc1OCCCN1CCC(CO)CC1` [r135] yielded an inhibition at 3 µM [1] of 100% and an inhibition at 10 µM [2] of 100%.
`CCc1ccc(Oc2ccnc3ccc(OCCOC(=O)C(C)(C)C)cc23)c(-c2ncccn2)n1` [Compound 207, 2-[4-(6-Ethyl-2-pyrimidin-2-yl-pyridin-3-yloxy)-quinolin-6-yloxy]-ethyl 2,2-dimethyl-propanate] gave an inhibition at 3 µM [3] of 93%.
With `Cc1cc(Oc2ccnc3ccc(Br)cc23)c(-c2ccccn2)nc1C` [Compound 2, 3-(6-Bromo-quinolin-4-yloxy)-5,6-dimethyl-[2,2']bipyridine] the inhibition at 3 µM [3] was 100% and the inhibition at 10 µM [4] was 100%.
`Cc1cc(Oc2ccnc3cc(Cl)c(Cl)cc23)c(-c2ccccn2)nc1C` [Compound 131, 3-(6,7-Dichloro-quinolin-4-yloxy)-5,6-dimethyl-[2,2']bipyridine] gave an inhibition at 3 µM [3] of 99% and an inhibition at 10 µM [4] of 100%.
`CCOC(=O)c1cc(-n2cccc2)ccc1Oc1ccnc2cc(OC)c(OC)cc12` [Compound r90] gave an inhibition at 3 µM [1] of 54% and an inhibition at 10 µM [2] of 95%.
With `Cc1sc2ncnc(Oc3cc4cccnc4nc3-c3ccccc3)c2c1C` [Compound 78, 3-(5,6-Dimethyl-thieno[2,3-d]pyrimidin-4-yloxy)-2-phenyl-[1,8] naphthyridine] the inhibition at 3 µM [3] was 75% and the inhibition at 10 µM [4] was 99%.
Work on `COc1cc2nccc(Oc3ccc(C)nc3-c3ccc(F)cc3)c2cc1OC` [Compound r251] yielded an inhibition at 3 µM [5] of 84% and an inhibition at 10 µM [6] of 100%.
With `COc1cc2nccc(Oc3ccc(C)cc3C(=O)c3ccc(OCCCl)cc3)c2cc1OC` [Compound r189] the inhibition at 3 µM [5] was 86% and the inhibition at 10 µM [6] was 100%.
`COc1cc2nccc(Oc3cc4c5c(c3C=O)CCCN5CCC4)c2cc1OC` [Compound r28] gave an inhibition at 3 µM [1] of 0% and an inhibition at 10 µM [2] of 53%.
Compound `COc1cc2nccc(Oc3cc4cc(F)ccc4nc3-c3ccccc3)c2cc1OC` [r292] has an inhibition at 3 µM [5] of 86% and an inhibition at 10 µM [6] of 100%.
With `COc1cc2c(Oc3cc(C)c(C)nc3-c3nc(C)c(C)s3)ccnc2cc1OCc1ccccc1` [Compound r454] the inhibition at 3 µM [5] was 41% and the inhibition at 10 µM [6] was 75%.
With `COc1cc2c(Oc3cc4ccccc4nc3C)ccnc2cc1OCc1ccccc1` [Compound r351, 7-Benzyloxy-6-methoxy-4-(2-methyl-quinolin-3-yloxy)-quinoline] the inhibition at 3 µM [5] was 42% and the inhibition at 10 µM [6] was 90%.
Compound `COc1cc2nccc(Oc3ccc(C)nc3C#C[Si](C)(C)C)c2cc1OC` [r212] has an inhibition at 3 µM [5] of 94% and an inhibition at 10 µM [6] of 100%.
`Cc1cc(Oc2ccnc3cc(Br)ccc23)c(-c2ccccn2)nc1C` [Compound 14, 3-(7-Bromo-quinolin-4-yloxy)-5,6-dimethyl-[2,2']bipyridine] gave an inhibition at 3 µM [3] of 100% and an inhibition at 10 µM [4] of 100%.
For `CCCOC(=O)c1ccccc1Oc1ccnc2cc(OC)c(OC)cc12` [Compound r94], the inhibition at 3 µM [1] was 39% and the inhibition at 10 µM [2] was 97%.
`Cc1ccc(-c2ccc3nccc(Oc4cc(C)c(C)nc4-c4ccccn4)c3c2)s1` [Compound 165, 5,6-Dimethyl-3-[6-(5-methyl-thiophen-2-yl)-quinolin-4-yloxy]-[2,2']bipyridine] gave an inhibition at 3 µM [3] of 90% and an inhibition at 10 µM [4] of 100%.
In the case of `COc1cc2c(Oc3cc4ccccc4nc3C)ccnc2cc1OCCN1CCCC(CO)C1` (stereo not shown) [Compound r359], the inhibition at 3 µM [5] is reported as 100% and the inhibition at 10 µM [6] is reported as 100%.
Compound `Cc1cc(Oc2ccnc3cc(OCCO)ccc23)c(-c2ccccn2)nc1C` [Compound 143, 2-[4-(5,6-Dimethyl-[2,2']bipyridinyl-3-ylox)-quinolin-7-yloxy]-ethanol] has an inhibition at 3 µM [3] of 100% and an inhibition at 10 µM [4] of 100%.
Work on `COc1cc2c(Oc3cc4ccccc4nc3C)ccnc2cc1OCCN(C)C` [Compound r355] yielded an inhibition at 3 µM [5] of 100% and an inhibition at 10 µM [6] of 100%.
Work on `Cc1cc(Oc2ccnc3ccc(-c4cccc(O)c4)cc23)c(-c2ccccn2)nc1C` [Compound 11, 3-[4-(5,6-Dimethyl-[2,2']bipyridin-3-yloxy)-quinolin-6-yl]-phenol] yielded an inhibition at 3 µM [3] of 100% and an inhibition at 10 µM [4] of 100%.
With `COc1cc2c(Oc3cc4ccccc4nc3C)ccnc2cc1OCCN1CCOCC1` [Compound r366] the inhibition at 10 µM (A549, read-out: TGFβ inhibition rate, %) was 100%.
`COc1cc2c(Oc3cc(C)c(C)nc3-c3cccc(C)n3)ccnc2cc1O` [Compound r443] was tested, and the inhibition at 3 µM [5] was 60% and the inhibition at 10 µM [6] was 97%.
Compound `COc1cc2nccc(Oc3ccc(C)nc3[N+](=O)[O-])c2cc1OC` [r210] has an inhibition at 3 µM [5] of 45% and an inhibition at 10 µM [6] of 80%.
For `CCCOc1ccc(Oc2ccnc3cc(OC)c(OC)cc23)c(C(C)=O)c1` [Compound r179], the inhibition at 3 µM [5] was 18% and the inhibition at 10 µM [6] was 68%.
`CCOC(=O)c1cc(F)ccc1Sc1ccnc2cc(OC)c(OC)cc12` [Compound r419] was tested, and the inhibition at 3 µM [5] was 7% and the inhibition at 10 µM [6] was 67%.
For `COc1cc2nccc(Oc3cc(C)nc4ccccc34)c2cc1OC` [Compound r309], the inhibition at 3 µM [5] was 41% and the inhibition at 10 µM [6] was 79%.
Compound `COc1cc2c(Oc3cc(C)c(C)cc3C(C)=O)ccnc2cc1OCCn1ccnc1` [Compound r317] has an inhibition at 3 µM [5] of 100% and an inhibition at 10 µM [6] of 100%.
For `COc1cc2nccc(Oc3cc(C)c(C)nc3-c3ccccn3)c2cc1OC(C)C` [Compound 120, 3-(6-Isopropoxy-7-methoxy-quinolin-4-yloxy)-5,6-dimethyl-[2,2']bipyridine], the inhibition at 3 µM [3] was 94% and the inhibition at 10 µM [4] was 100%.
Compound `COc1ccc(Oc2ccnc3cc(OCCCN4CCOCC4)c(OC)cc23)c(C(C)=O)c1` [r122] has an inhibition at 3 µM [1] of 100% and an inhibition at 10 µM [2] of 100%.
In the case of `COc1cc2c(Oc3cc4ccccc4nc3C(C)=O)ccnc2cc1OCCN1CCCC(O)C1` (stereo not shown) [Compound r393], the inhibition at 3 µM [5] is reported as 100%.
Compound `Cc1ccc(-c2nc(C)c(C)cc2Oc2ncnc3ccccc23)nc1` [Compound 38, 4-(5,6,5'-Trimethyl-[2,2']bipyridin-3-yloxy)-quinazoline] has an inhibition at 3 µM [3] of 45% and an inhibition at 10 µM [4] of 89%.
`Cc1ccc(Oc2ccnc3ccc(OCCCN(C)CCO)cc23)c(-c2ncccn2)n1` [Compound 211, 2-(Methyl-{3-[4-(6-methyl-2-pyrimidin-2-yl-pyridin-3-yloxy)-quinolin-6-yloxy]-propyl}-amino)-ethanol] showed an inhibition at 3 µM [3] of 54%.
Work on `COc1cc2nccc(Oc3ccc(C)nc3-c3ccsc3)c2cc1OC` [r255] yielded an inhibition at 3 µM [5] of 93% and an inhibition at 10 µM [6] of 100%.
With `COc1cc2nccc(Oc3ccc(C)cc3-c3ccccn3)c2cc1OC` [r167] the inhibition at 3 µM [5] was 98% and the inhibition at 10 µM [6] was 100%.
With `CCN(CC)CCCCOc1cc2nccc(Oc3ccc(C)cc3C(=O)c3ccccc3)c2cc1OC` [r143] the inhibition at 3 µM [1] was 97% and the inhibition at 10 µM [2] was 100%.
`COc1cc2c(Oc3ccc(C)nc3-c3nccs3)ccnc2cc1OCC(CO)CO` [Compound r330] gave an inhibition at 3 µM [5] of 100% and an inhibition at 10 µM [6] of 100%.
`COc1cc2c(Oc3ccc(C)cc3C(=O)c3ccccc3)ccnc2cc1OCCN1CCNCC1` [Compound r128] gave an inhibition at 3 µM [1] of 100% and an inhibition at 10 µM [2] of 100%.
`COc1cc2c(Oc3cc(C)c(C)nc3-c3cccc(C)n3)ccnc2cc1OCc1ccccc1` [Compound r442] showed an inhibition at 3 µM [5] of 70% and an inhibition at 10 µM [6] of 100%.
“4-(6-Fluoro-2-iodo-pyridin-3-yloxy)-6,7-dimethoxy-quinoline [Compound r211]” was tested, and the “TGFβ inhibition rate, %” value (3 µM, compounds of Reference Examples (Test Example 1B)) was 87% and the “TGFβ inhibition rate, %” value (10 µM, compounds of Reference Examples (Test Example 1B)) was 100%.
`COc1cc2nccc(Oc3cc4cncnc4cc3C)c2cc1OC` [Compound r305, 6-(6,7-Dimethoxy-quinolin-4-yloxy)-7-methyl-quinazoline] gave an inhibition at 3 µM [5] of 28% and an inhibition at 10 µM [6] of 64%.
`COc1cc2c(Oc3ccc(C)cc3C(=O)c3ccccc3)ccnc2cc1OCCCCN1CCNCC1` [Compound r147] gave an inhibition at 3 µM [1] of 98% and an inhibition at 10 µM [2] of 100%.
With `COc1cc2nccc(Oc3ccc4ncsc4c3I)c2cc1OC` [r294] the inhibition at 3 µM [5] was 53% and the inhibition at 10 µM [6] was 77%.
`COc1ccc(Oc2ccnc3cc(OC)c(OC)cc23)c(C(=O)NC2CCCCC2)c1` [Compound r112] showed an inhibition at 3 µM [1] of 44% and an inhibition at 10 µM [2] of 91%.
Compound `CCCCc1ccc(-c2nc(C)ccc2Oc2ccnc3cc(OC)c(OC)cc23)cc1` [Compound r244] has an inhibition at 3 µM [5] of -3% and an inhibition at 10 µM [6] of 63%.
Work on `COc1cc2c(Oc3ccc(C)cc3C(=O)c3ccccc3)ccnc2cc1OCCCCN1CCC(N2CCCCC2)CC1` [Compound r146] yielded an inhibition at 3 µM [1] of 64% and an inhibition at 10 µM [2] of 100%.
`COc1cc2nccc(Oc3ccc(SC)nc3-c3cccnc3)c2cc1OC` [r267] gave an inhibition at 3 µM [5] of 34% and an inhibition at 10 µM [6] of 83%.
